Holding throughout (type): cell-based, human
Assay [1] relates to myelin reactive T cells in PBMCs. In words: Epitope Analysis Assay (EAA): PBMC stimulation with myelin peptide mixes, tritiated thymidine incorporation, SI of at least 3 positive. The conditions noted are these: for subjects tested that were reactive: all 54 subjects tested. On the procedure: The SI may be calculated by comparing [^3H] thymidine incorporation of the sample in the presence of a peptide comprising a portion of an MRTC polypeptide target to that in the presence of a media only control. Briefly, separate aliquots of the sample are plated and incubated in the presence of either a peptide comprising a portion of the polypeptide or a media only control in order to stimulate reactive T cells. The cultures are pulsed with [^3H] thymidine during the last 6-18 hours of incubation. The SI is calculated as the quotient of the mean counts per minute (cpm) of the antigen aliquots/mean cpm of the control aliquots. The SI of autoreactive T cells may be increased by at least a factor of 1.3, 1.4, 1.5, 1.6, 1.7, 1.8, 1.9, 2.0, 2.1, 2.2, 2.3, 2.4, 2.5, 2.6, 2.7. 2.8, 2.9, 3.0, 3.1, 3.2, 3.3, 3.4, 3.5, 3.6, 3.7, 3.8, 3.9, or 4.0 compared to a control.
The peptides in Example 2 were tested in an in vitro PBMC stimulation assay to identify myelin reactive T cells in a patient's blood. Peripheral blood mononuclear cells (PBMCs) were separated from whole blood, washed, counted and plated at 250,000 cells per well in a total of four 96-well plates. Myelin peptide mixes of two overlapping 16-mer peptides were added to triplicate wells of PBMCs with triplicate media only control wells included on each plate and then incubated. After two days of incubation, 20 U/ml of interleukin-2 (IL-2) was added. On the fifth day, the plates were labeled with a radioisotope (tritiated thymidine) and harvested 6 hours later. In this assay, the cells that incorporate tritiated thymidine are representative of T cells being activated and induced to proliferate by the T cell receptor-peptide-MHC complexes. T cells incorporating comparatively more tritiated thymidine than control and experimental cells are more highly activated T cells and are proliferating more rapidly.
Stimulation Indices (SI) were determined for each peptide mix by dividing the mean radiolabel counts per minute (CPM) of the peptide stimulated wells by the mean CPM of the media only control wells averaged across all four plates. An SI of at least 3 was considered positive. FIG. 1 is an example of EAA from one MS patient. Seven of the peptide mixtures were slightly reactive, with the MOGm15 stimulated wells being very reactive. FIGS. 2-4 show the frequency of reactivity to the peptide mixes in 48 patients.
Background: Incorporation of labelled thymidine or its analogues reports DNA synthesis.

Assay [2] has the same test system. In words: EAA with positivity by Variance Evaluation Method or CPM Variance Method (clinical trials). The conditions noted are these: clinical trial population, RR-MS or CIS subjects. From the text: The predetermined value may also be calculated using a Variance Evaluation Method as follows: • 1. EAAs may be run on a given patient population (minimum of 120 assays from 120 unique subjects) • 2. A “negative population” may be created by averaging all SI values<2.5 • 3. The Standard Deviation (SD) may be calculated for each peptide • 4. The following for each peptide may be then be calculated: • a. Average+1SD • b. Average+2SD • c. Average+3SD • 5. The following SIs may be considered above the predetermined value: • a. SI greater than or equal to the average+3SD • b. Any SI greater than or equal to 2.5
The predetermined value may also be evaluated using a Counts per Minute (CPM) Variance Method. This algorithm may set a comprehensive cutoff for all peptides within a given assay. It may be calculated as follows: • 1. EAAs may be run and the CPM for all control (media only, no antigen) wells averaged. • 2. The SD for CPM of the control wells may then be calculated. • 3. The following may then be calculated for the control wells: • a. Average+1SD • b. Average+2SD • c. Average+3SD • 4. Any peptide with an average CPM greater than or equal to the average+3SD of the control wells may be considered above the predetermined value.
Any peptide, either analyzed in an individual well or as averaged over wells run in triplicate, with an SI≧2.5, an SI≧average+3SD by the Variance Evaluation Method, or an SI≧average+3SD by the CPM variance method may be considered above the predetermined value, which may indicate a T cell(s) positive for reactivity to a peptide.
The peptides of Example 3 have been tested in 429 EAAs in clinical trials as follows. […] Pre-Vaccine EAAs have 158 positive out of 387 assays (40.8%), with Relapse Remitting MS patients (RRMS) showing 150 positive of 368 assays (40.8%), and Clinically Isolated Syndrome (CIS) patients showing 8 positive of 19 assays (42.1%).
Over the course of 6 months a study was conducted with 120 subjects meeting the criteria for the clinical trial.
The above mentioned population of subjects was evaluated by EAA using the Variance Evaluation Method and CPM Variance Method as described above, and deemed eligible for vaccine production. Of the 120 attempts to manufacture vaccine, there were 2 shipping failures (blood was not received within our stated criteria), 1 culture was lost to contamination and 5 samples arrived with low cell volume/yield. Of the remaining 112 subjects, vaccine was successfully generated in 89 subjects, with 22 still in production (98.9% of eligible samples, 92.5% of all samples completed). From this, a positive EAA was deemed predictive of the ability to manufacture a vaccine to therapeutic dose by methods disclosed herein.

Another assay has as its system myelin-reactive T cells. In words: Growth of myelin reactive T cell lines with low stimulation indices. The source says: Using the algorithms described above, statistically significant SIs as low as 1.3 have been observed and therefore should be able grow in response to antigen. To verify this ability, 5 cell lines across two patients are shown with an SI<2.0. The results are shown in Table 12 and FIG. 24, which indicate growth of these cell lines with only peptide antigen stimulation and common T cell growth factors.
PBMC for subject 1042 were run in the EAA, and […] were positive, including PLPm18 with an SI of 1.8, PLPm26 with an SI of 2.5 and PLPm28 with an SI of 2.5. […] PBMC for subject 1014 were run in the EAA, and 4 mixes were positive, including MBPm14 with an SI of 1.7, PLPm17 with an SI of 1.7, PLPm28 with an SI of 2.2 and MOGm6 with an SI of 1.9. […]
PBMCs were isolated via density gradient centrifugation from peripheral blood obtained through venipuncture into ACD-1 anticoagulant. PBMCs were plated at 2.5E+06 cells/well in 24 well plates. Antigen in the form of 16mer peptides identified in the EAA were added at a final concentration of 20 ug/ml. Interluekin-2 (IL-2) was added at a final concentration of 100 U/ml starting at 48 hours and IL-2 was added at the same concentration with each feeding or splitting of wells. Peptide restimulation in the presence of antigen presenting cells (APCs-autologous PBMCs irradiated at 3500 rad) was done at days 7, 14 and 21. Interleukin-15 (IL-15) was added at a final concentration of 5 ng/ml-20 ng/ml (lot specific) starting at day 14 and continued through the remainder of the culture period. Cells lines were all harvested by day 35 and had achieved expansions of 3.0-8.2 fold.

A further assay relates to PBMCs / T cells. Nature of the assay: Growth analysis of T cell lines stimulated with EAA-selected peptide mixes. The following applies: from 15 million PBMCs, in 20 days, 3 stimulations. How it is done: Patient-specific peptides identified by EAA were tested to determine whether they could be used to produce and expand myelin-reactive T-cells for use in a vaccine. A 500 ml bag of blood was obtained from the patient to set up vaccine production cultures. Bulk cultures were set up in AIM V medium along with the optimized peptides. After 48 hours of incubation, rIL-2 was added at 20 U/ml. Seven days later, the cultures were re-stimulated with PBMCs and peptide. The media was changed to 2% AB serum with 100 U/ml rIL2 in X Vivo 15 medium. The cultures were fed and split every 1-4 days as necessary. After an additional seven days, the cultures were once again stimulated with APCs and peptides. The cultures were continued to be fed and split every 1-4 days as necessary. After an additional 7-14 days, the cultures had expanded to at least 100×10^6 cells. The cells were divided into aliquots of 10×10^6 cells and frozen.
The ability of stimulation with the EAA-selected peptides to more rapidly expand the stimulated the T cells were tested. The cell growth curves were analyzed for two different stimulatory peptide mixes. The EAA CPM data shown in FIG. 8 show a strongly reactive mix in MBPm19 for a patient with an SI of 4.7. […] These two peptides mixes were then used to stimulate PBMCs from this patient to produce T cell lines. […]

For “MBP 151-170: immunodominant peptide of MBP used to prepare vaccines in Example 1 (TASTMDHARHGFLPRHRDTG; UniProt P02686 151-170, looked up, fragment)”, in assay [1], the “subjects tested that were reactive” value is reported as “Forty-one percent”.

Regarding “PLP 30-49: PLP immunodominant peptide used to prepare vaccines in Example 1 (ALFCGCGHEALTGTEKLIET; UniProt P60201 30-49, looked up, fragment)”, the “subjects tested that were reactive” value in assay [1] was 31%.

As for “PLP 180-199: PLP immunodominant peptide used to prepare vaccines in Example 1 (TWTTCQSIAFPSKTSASIGS; UniProt P60201 180-199, looked up, fragment)”, the “subjects tested that were reactive” value in assay [1] worked out at 31%.

With “PLPm28: mix of PLP 55 and PLP 56 (chain 1 GKVCGSNLLSICKTAE; chain 2 GSNLLSICKTAEFQMT)”, the “# of Subjects (frequency of identification)” value in assay [2] is 6. Further, the “% of Subjects (frequency of identification)” value in assay [2] amounted to 5.0%. In addition, the “Fold Expansion” value in the assay on myelin-reactive T cells (subject 1014, Day 0) was 1.0; in the assay with myelin-reactive T cells (subject 1014, Day 17), 0.9; in the assay on myelin-reactive T cells (subject 1014, Day 19), 1.4; in the assay on myelin-reactive T cells (subject 1014, Day 28) it was 2.8; with myelin-reactive T cells (subject 1014, Day 33), 5.2; in the assay with myelin-reactive T cells (subject 1014, Day 35), 5.3. The “Fold Expansion” value stood at 1.0 in the assay with myelin-reactive T cells (subject 1042, Day 0); 0.6 with myelin-reactive T cells (subject 1042, Day 14); 1.5 in the assay on myelin-reactive T cells (subject 1042, Day 19); 3.5 in the assay on myelin-reactive T cells (subject 1042, Day 26); 7.4 in the assay on myelin-reactive T cells (subject 1042, Day 33); 8.2 in the assay with myelin-reactive T cells (subject 1042, Day 35). In addition, the “Viable Cell Count, Count/well” value with myelin-reactive T cells (subject 1014, Day 0) is 2.50E+06; in the assay with myelin-reactive T cells (subject 1014, Day 17), 3.09E+06; in the assay with myelin-reactive T cells (subject 1014, Day 19) it was 2.41E+06; with myelin-reactive T cells (subject 1014, Day 28), 2.81E+06; in the assay on myelin-reactive T cells (subject 1014, Day 33) it was 5.17E+06; in the assay with myelin-reactive T cells (subject 1014, Day 35) it was 5.33E+06. Moreover, the “Viable Cell Count, Count/well” value with myelin-reactive T cells (subject 1042, Day 0) was determined as 2.50E+06; with myelin-reactive T cells (subject 1042, Day 14), 1.56E+06; in the assay with myelin-reactive T cells (subject 1042, Day 19) it was 3.82E+06; in the assay with myelin-reactive T cells (subject 1042, Day 26), 4.34E+06; with myelin-reactive T cells (subject 1042, Day 33), 4.61E+06; with myelin-reactive T cells (subject 1042, Day 35), 5.15E+06. Moreover, the “Viable Cell Count, Total Cells” value with myelin-reactive T cells (subject 1014, Day 0) is 2.25E+07; in the assay with myelin-reactive T cells (subject 1014, Day 17), 2.78E+07; with myelin-reactive T cells (subject 1014, Day 19), 4.34E+07; in the assay with myelin-reactive T cells (subject 1014, Day 28) it was 8.43E+07; in the assay on myelin-reactive T cells (subject 1014, Day 33), 1.55E+08; with myelin-reactive T cells (subject 1014, Day 35) it was 1.60E+08. In addition, the “Viable Cell Count, Total Cells” value in the assay with myelin-reactive T cells (subject 1042, Day 0) turned out to be 3.00E+07; in the assay with myelin-reactive T cells (subject 1042, Day 14), 1.87E+07; in the assay with myelin-reactive T cells (subject 1042, Day 19), 4.58E+07; in the assay on myelin-reactive T cells (subject 1042, Day 26), 1.04E+08; in the assay with myelin-reactive T cells (subject 1042, Day 33), 2.21E+08; in the assay on myelin-reactive T cells (subject 1042, Day 35), 2.47E+08.

For the substance “PLPm33: mix of PLP 65 and PLP 66 (chain 1 FMIAATYNFAVLKLMG; chain 2 ATYNFAVLKLMGRGTK)”, the “Stimulation Index (SI)” value in assay [1] (patient of Example 8, FIG. 8) is 17.9. Also, in assay [2], the “# of Subjects (frequency of identification)” value was 11 and the “% of Subjects (frequency of identification)” value stood at 9.2%. For the same substance, the “T cells after expansion” value in the assay on PBMCs / T cells was 200 million T cells.

These data come from patent US20100003228A1, “T-CELL VACCINE” (priority 2006, published 2010).
